Source: PubChem BioAssay AID489041 (Sanford-Burnham Center for Chemical Genomics, 2010)
The source made the active and inactive calls. The rule behind the calls is not given here.

These molecules were tested on HEK-293T NF-kB luciferase reporter counterscreen, luminescence (assay: inhibitors of HEK-293T NF-kB luciferase – HEK-293T cells, luminescence, counter-screen for T-cell antigen receptor NF-kB inhibitors, dose response (AID 489041)).
In the case of `O=c1oc2ccccc2cc1-c1cn(-c2ccccc2)c(=S)[nH]1`, the IC50 is reported as 4.59 µM.
`CCCCCCCn1c2c(c(=N)c3ccccc31)CCC2` was tested, and the IC50 was 0.99 µM.
Molecule `COc1cccc(CN(C)C(=O)c2cc(COc3ccc4ncccc4c3)on2)c1` has an IC50 of 1.9 µM.
For `C/C=C(\C)C(=O)N[C@@H](c1ccccc1)[C@@H](O)C(=O)O[C@H]1C[C@@]2(O)[C@@H](OC(=O)c3ccccc3)C3[C@](C)(C(=O)[C@H](OC(C)=O)C(=C1C)C2(C)C)[C@H](O)C[C@H]1OC[C@@]31OC(C)=O` (some centres not stated), the IC50 was > 80 µM (inactive).
With `CCCCCCCCCCCCCCCC[n+]1ccc(/C=N/O)cc1` the IC50 was 20.7 µM (inactive).
With `O[C@@H]1[C@@H](O)C=C2CCN3Cc4cc5c(cc4[C@H]1C23)OCO5` (some centres not stated) the IC50 was 1.97 µM.
Molecule `Cc1ccc(C(=O)O/N=C(\N)c2ccccn2)c(Cl)c1` has an IC50 of 2.61 µM.
`CCC(=O)NC(c1ccc(C)cc1)c1ccc2cccnc2c1O` (configuration not stated) gave an IC50 of 0.73 µM.
`O=C(Nc1ccc(S(=O)(=O)N2CCN(Cc3ccccc3)CC2)cc1)c1cnccn1` showed an IC50 of 1.51 µM.
`Cc1nc(NCc2ccco2)c2c(C)c(C)sc2n1` showed an IC50 of 1.82 µM.
With `Cc1ccc(C(=O)c2cc([N+](=O)[O-])ccc2N2CCOCC2)c(C)c1` the IC50 was 4.92 µM.
In the case of `COC(=O)Cc1[nH]n(-c2nc3ccccc3s2)c(=O)c1C(C)=Nc1ccc(OC)cc1`, the IC50 is reported as < 0.16 µM.
With `Cc1ccc(NC(=O)CSc2nc(-c3ccco3)cc(C(F)(F)F)n2)cc1C` the IC50 was > 80 µM (inactive).
For `CCc1cc2c(=O)nc3n(c2s1)Cc1ccccc1/C3=C(/O)c1cccc([N+](=O)[O-])c1`, the IC50 was > 80 µM (inactive).
Molecule `CCC(O)C1CCN(C(=O)c2cc(COc3ccc4ncccc4c3)on2)CC1` (configuration not stated) has an IC50 of 1.72 µM.
`CNC[C@H](CC1CCCCC1)NC[C@H](Cc1ccccc1)NCCC12CC3CC(CC(C3)C1)C2` was tested, and the IC50 was 25 µM (inactive).
`Cc1ccc2c(c1)C=CC(C#N)N2C(=O)c1ccccc1` (configuration not stated) was tested, and the IC50 was 29.1 µM (inactive).
`COCCCNC(=O)C(=O)Nc1ccc2c(c1)N(S(=O)(=O)c1cccs1)CCC2` was tested, and the IC50 was 11.7 µM.
`CCOc1ccccc1NC(=O)CN(c1ccc(OC)cc1)S(=O)(=O)c1c(C)noc1C` gave an IC50 of 16.9 µM.
Molecule `Cc1cc(C)c2nc(C)cc(N/N=C/c3ccc(O)cc3)c2c1` has an IC50 of 12.9 µM.
`CCOC(=O)c1[nH]c2c(c1C)C(=O)CC(c1ccc(F)cc1)C2` (configuration not stated) was tested, and the IC50 was > 80 µM (inactive).
`COc1ccc(C(=O)N2CCN(c3ccc([N+](=O)[O-])c(NCCc4ccc(OC)c(OC)c4)c3)CC2)cc1` was tested, and the IC50 was 0.31 µM.
`CCN(CC)c1ccc(-c2nn3c(-c4ccccc4OC)nnc3s2)cc1` showed an IC50 of 1.87 µM.
`CCOc1ccc(-c2[nH]ncc2-c2ccc(OC)c(OC)c2)c(O)c1` gave an IC50 of 10.4 µM.
In the case of `Cc1cccc(OCCNC(=O)c2ccc(Cl)c(S(=O)(=O)NCc3cccnc3)c2)c1`, the IC50 is reported as 10.1 µM.
`O=[N+]([O-])c1nn(-c2ccc3c(c2)OCCO3)n(O)c1=Nc1ccccc1` was tested, and the IC50 was 12.4 µM.
Molecule `CCn1c2ccccc2c2cc(NC(=O)c3cc(OC)c(OC)c(OC)c3)ccc21` has an IC50 of 3.97 µM.
In the case of `COc1cccc(C2CC(=O)Nc3cc4c(cc32)CCC4)c1` (configuration not stated), the IC50 is reported as 10.7 µM.
`O=C(Sc1cccc2cccnc12)c1ccccc1Br` was tested, and the IC50 was 27.1 µM (inactive).
For `C=CCSc1nc2ccccc2n1C(=O)/C=C/c1cc(OC)c(OC)c(OC)c1`, the IC50 was 21.2 µM (inactive).
For `Cc1c(C)c2cccnc2c2ncccc12`, the IC50 was 23.1 µM (inactive).
`Cc1ccc(-c2cc(C(F)F)n3ncc(C(=O)N4CCc5ccccc54)c3n2)cc1` was tested, and the IC50 was 9.99 µM.
In the case of `COc1ccc(NC(=O)/C(Cl)=C(/Cl)S(=O)Cc2ccc(Cl)cc2)cn1` (configuration not stated), the IC50 is reported as 7.65 µM.
`O=C(OCCN1C(=O)c2cccc3c(N4CCOCC4)ccc(c23)C1=O)c1ccc(Cl)cc1` gave an IC50 of 7.66 µM.
Work on `CCOc1ccccc1C(=O)Nc1ccc2nc(N3CCN(c4ncccn4)CC3)cc(C)c2c1` yielded an IC50 of 15.2 µM.
`N=c1ccn(CC(=O)c2ccc(-c3ccccc3)cc2)cc1` gave an IC50 of 5.16 µM.
`O=C(Nc1nc2ccc(S(=O)(=O)N3CCCC3)cc2s1)C1CCCCC1` was tested, and the IC50 was 2.8 µM.
With `CCCC(=O)NC(c1ccccc1Cl)c1ccc2cccnc2c1O` (configuration not stated) the IC50 was > 80 µM (inactive).
With `CCCCCCCCCCCCCCCC[n+]1ccc(C(N)=O)cc1` the IC50 was 46.7 µM (inactive).
`Cc1nn(C)c(C)c1CN(Cc1nc(CCC(C)C)no1)C(C)C` was tested, and the IC50 was 11 µM.
`O=C(c1ccc(Br)cc1)c1cc([N+](=O)[O-])ccc1N1CCOCC1` showed an IC50 of 10.8 µM.
`C[C@]12CC[C@H]3[C@@H](CC[C@]4(O)C[C@@H](O)CC[C@]34C=O)[C@@]1(O)CC[C@@H]2C1=CC(=O)OC1` gave an IC50 of 0.34 µM.
`COc1ccc(C2=NOC(C(=O)NCc3ccc(F)cc3)C2)cc1OC` (configuration not stated) showed an IC50 of 14.7 µM.
For `Cc1ccc(/C=N/NC(=O)c2c(C)nc3ccc(Br)cn23)cc1`, the IC50 was > 80 µM (inactive).
Molecule `O=C(c1ccc(Cl)cc1)c1cc([N+](=O)[O-])ccc1N1CCOCC1` has an IC50 of 11.9 µM.
With `COc1cc(C2c3cc4c(cc3C(OC3OC5COC(c6cccs6)OC5C(O)C3O)C3COC(=O)C23)OCO4)cc(OC)c1O` (configuration not stated) the IC50 was > 80 µM (inactive).
`COc1ccc(OC)c(CCNC(=O)Cn2nc(C)c3c(C)n(-c4ccc(C)cc4)nc3c2=O)c1` gave an IC50 of 1.28 µM.
`O=[N+]([O-])c1ccc(O)c(/C=N/Nc2ccc(Cl)nn2)c1` was tested, and the IC50 was > 80 µM (inactive).
`C[C@]12CC[C@H](O)C[C@H]1CC[C@@H]1[C@@H]2C[C@@H](O)[C@]2(C)[C@@H](C3=CC(=O)OC3)CC[C@]12O` was tested, and the IC50 was 0.58 µM.
`CC(=O)c1c(C)[nH]c(C(=O)OCC(=O)Nc2ccc(C)cc2[N+](=O)[O-])c1C` gave an IC50 of 0.79 µM.
For `COc1ccc(C(C(=O)NC2CCCCC2)N(C(=O)CCl)c2ccc(C)cc2)cc1` (configuration not stated), the IC50 was > 80 µM (inactive).
Molecule `Cc1cnc(NC(=O)c2ccc3c(c2)OCCO3)s1` has an IC50 of 3.78 µM.
